Where two headings read alike, the source gives them in different places.
Target: T1, human ANO6 (variant 5) (Homo sapiens, UniProt Q4KMQ2)
T1 construct: expressed in transfected cells; host or cells: Fischer rat thyroid (FRT) cells
T1 sequence (Q4KMQ2 1-931 isoform Q4KMQ2-2): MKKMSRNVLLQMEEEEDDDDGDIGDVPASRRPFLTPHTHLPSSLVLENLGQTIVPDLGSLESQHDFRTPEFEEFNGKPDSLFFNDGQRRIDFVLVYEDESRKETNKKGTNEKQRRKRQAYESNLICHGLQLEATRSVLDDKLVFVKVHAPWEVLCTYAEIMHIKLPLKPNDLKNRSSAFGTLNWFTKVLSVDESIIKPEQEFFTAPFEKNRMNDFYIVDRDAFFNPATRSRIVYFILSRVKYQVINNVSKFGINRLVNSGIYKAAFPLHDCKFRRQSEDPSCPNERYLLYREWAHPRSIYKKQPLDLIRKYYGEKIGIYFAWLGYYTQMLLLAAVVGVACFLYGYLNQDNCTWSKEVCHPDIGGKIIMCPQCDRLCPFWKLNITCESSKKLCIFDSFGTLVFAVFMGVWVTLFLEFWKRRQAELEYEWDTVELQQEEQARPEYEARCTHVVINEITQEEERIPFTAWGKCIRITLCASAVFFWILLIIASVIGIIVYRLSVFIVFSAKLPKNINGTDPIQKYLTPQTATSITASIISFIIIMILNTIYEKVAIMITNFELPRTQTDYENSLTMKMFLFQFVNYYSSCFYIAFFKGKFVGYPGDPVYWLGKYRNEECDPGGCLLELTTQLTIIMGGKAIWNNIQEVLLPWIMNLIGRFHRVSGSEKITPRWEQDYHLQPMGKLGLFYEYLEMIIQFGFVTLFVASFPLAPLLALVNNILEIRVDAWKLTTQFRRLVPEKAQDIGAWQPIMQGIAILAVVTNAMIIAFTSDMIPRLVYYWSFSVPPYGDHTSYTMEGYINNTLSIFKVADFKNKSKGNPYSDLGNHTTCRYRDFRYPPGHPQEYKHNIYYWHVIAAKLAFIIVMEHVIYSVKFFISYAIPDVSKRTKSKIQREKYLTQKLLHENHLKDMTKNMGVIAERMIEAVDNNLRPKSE
Assay: Lact C2 assay (measuring phosphatidylserine externalization scramblase function)
Assay type: cell-based
Details: FRT; for inhibition at 1 µM: read-out: % Inhibition 1 µM; for inhibition at 0.05 µM: read-out: % Inhibition 50 nM
Summary of the method: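 Cells were pretreated 10 min with compound (50 nM, 100 nM, 1 µM; 1% DMSO), then given 10 µM ionomycin for 10 min. Surface phosphatidylserine was stained with 500 nM Lact-C2-GFP (10 min, 37 °C), fixed and imaged. Inhibition was scaled between untreated (100%) and ionomycin-alone (0%) wells.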

[1] = compound 1 µM, FRT cells expressing human ANO6 (variant 5), ionomycin 10 µM, Lact-C2-GFP fluorescence, average of three tests
[2] = compound 50 nM, FRT cells expressing human ANO6 (variant 5), ionomycin 10 µM, Lact-C2-GFP fluorescence, average of three tests

SMILES	inhibition at 1 µM [1]	inhibition at 0.05 µM [2]	inhibition at 0.05 µM	inhibition at 1 µM
Fc1cccc(-c2cnc(Nc3cccc(-c4nc5ccc(C(F)(F)F)cc5[nH]4)c3)nc2)n1 [Example 258, 5-(6-fluoropyridin-2-yl)-N-(3-(6-(trifluoromethyl)-1H-benzo[d]imidazol-2-yl)phenyl)pyrimidin-2-amine]	> 60%	> 60%		
Fc1ccc(-c2cnc(Nc3cccc(-c4nc5ccc(C(F)(F)F)cc5[nH]4)c3)nc2)nc1 [Example 260, 5-(5-fluoropyridin-2-yl)-N-(3-(6-(trifluoromethyl)-1H-benzo[d]imidazol-2-yl)phenyl)pyrimidin-2-amine]	> 60%	30 to 60%		
FC(F)(F)c1ccc2nc(-c3ccnc(Nc4ccc(-c5cccnn5)cc4)c3)[nH]c2c1 [Example 261, N-(4-(pyridazin-3-yl)phenyl)-4-(6-(trifluoromethyl)-1H-benzo[d]imidazol-2-yl) pyridin-2-amine]	> 60%	30 to 60%		
FC(F)(F)c1ccc2nc(-c3cncc(Nc4ccc(-c5cccnn5)cc4)c3)[nH]c2c1 [Example 262, N-(4-(pyridazin-3-yl)phenyl)-5-(6-(trifluoromethyl)-1H-benzo[d]imidazol-2-yl)pyridin-3-amine]		> 60%		
FC(F)(F)c1ccc2nc(-c3cc(Nc4ccc(-c5cccnn5)cc4)ccn3)[nH]c2c1 [Example 263, N-(4-(pyridazin-3-yl)phenyl)-2-(6-(trifluoromethyl)-1H-benzo[d]imidazol-2-yl)pyridin-4-amine]	30 to 60%			
Fc1ccc(-c2ccc(Nc3cccc(-c4nc5ccc(C(F)(F)F)cc5[nH]4)c3)cc2)nn1 [Example 264, N-(4-(6-fluoropyridazin-3-yl)phenyl)-3-(6-(trifluoromethyl)-1H-benzo[d]imidazol-2-yl) aniline]		> 60%		
c1ccc(-c2cnc(Nc3cccc(-c4nc5ccccc5[nH]4)c3)nn2)cc1 [Example 271, N-(3-(1H-benzo[d]imidazol-2-yl)phenyl)-6-phenyl-1,2,4-triazin-3-amine]	30 to 60%			
FC(F)(F)c1ccccc1-c1ccc(Nc2cccc(-c3nc4ccccc4[nH]3)c2)cc1 [Example 272, N-(3-(1H-benzo[d]imidazol-2-yl)phenyl)-2'-(trifluoromethyl)-[1,1'-biphenyl]-4-amine]	> 60%			
COc1ccc(-c2ccc(Nc3cccc(-c4nc5ccccc5[nH]4)c3)cc2)nn1 [Example 275, 3-(1H-benzo[d]imidazol-2-yl)-N-(4-(6-methoxypyridazin-3-yl)phenyl)aniline]	> 60%			
COc1ccc(-c2ccc(Nc3cccc(-c4nc5ccc(C(F)(F)F)cc5[nH]4)c3)cc2)nn1 [Example 278, N-(4-(6-methoxypyridazin-3-yl)phenyl)-3-(6-(trifluoromethyl)-1H-benzo[d]imidazol-2-yl)aniline]		> 60%		
CN(Cc1ccccc1)c1ccc2nc(-c3cccc(Nc4ccc(-c5cccnn5)cc4)c3)[nH]c2c1 [Example 280, N-benzyl-N-methyl-2-(3-((4-(pyridazin-3-yl)phenyl)amino)phenyl)-1H-benzo[d]imidazol-6-amine]			30 to 60%	> 60%
FC(F)(F)c1cccc2nc(-c3cccc(Nc4ncc(-c5cccnn5)cn4)c3)[nH]c12 [Example 289, 5-(pyridazin-3-yl)-N-(3-(7-(trifluoromethyl)-1H-benzo[d]imidazol-2-yl)phenyl)pyrimidin-2-amine]	30 to 60%			
Fc1cccc2nc(-c3cccc(Nc4ncc(-c5cccnn5)cn4)c3)[nH]c12 [Example 290, N-(3-(7-fluoro-1H-benzo[d]imidazol-2-yl)phenyl)-5-(pyridazin-3-yl)pyrimidin-2-amine]	30 to 60%			
Fc1cc(F)c2[nH]c(-c3cccc(Nc4ncc(-c5cccnn5)cn4)c3)nc2c1 [Example 292, N-(3-(5,7-difluoro-1H-benzo[d]imidazol-2-yl)phenyl)-5-(pyridazin-3-yl)pyrimidin-2-amine]	30 to 60%			
FC(F)(F)c1cc2nc(-c3cccc(Nc4ncc(-c5cccnn5)cn4)c3)[nH]c2cc1Cl [Example 294, N-(3-(6-chloro-5-(trifluoromethyl)-1H-benzo[d]imidazol-2-yl)phenyl)-5-(pyridazin-3-yl)pyrimidin-2-amine]	> 60%	30 to 60%		

Now from value to molecule, other results behind:

inhibition at 1 µM [1]	inhibition at 0.05 µM [2]	SMILES	inhibition at 0.05 µM	inhibition at 1 µM
30 to 60%		c1cc(Nc2ccc(-c3ccncn3)nn2)cc(-c2nc3ccccc3[nH]2)c1 [Example 257, N-(3-(1H-benzo[d]imidazol-2-yl)phenyl)-6-(pyrimidin-4-yl)pyridazin-3-amine]		
> 60%	30 to 60%	Fc1cccc(-c2cnc(Nc3cccc(-c4nc5ccccc5[nH]4)c3)nc2)n1 [Example 259, N-(3-(1H-benzo[d]imidazol-2-yl)phenyl)-5-(6-fluoropyridin-2-yl) pyrimidin-2-amine]		
	> 60%	Fc1ccc(-c2ccc(Nc3cccc(-c4nc5ccccc5[nH]4)c3)cc2)nn1 [Example 265, 3-(1H-benzo[d]imidazol-2-yl)-N-(4-(6-fluoropyridazin-3-yl)phenyl)aniline]		
> 60%	30 to 60%	Fc1cc(-c2cccnn2)ccc1Nc1cccc(-c2nc3ccccc3[nH]2)c1 [Example 269, N-(3-(1H-benzo[d]imidazol-2-yl)phenyl)-2-fluoro-4-(pyridazin-3-yl)aniline]		
	> 60%	Fc1cc(Nc2cccc(-c3nc4ccccc4[nH]3)c2)ccc1-c1cccnn1 [Example 270, N-(3-(1H-benzo[d]imidazol-2-yl)phenyl)-3-fluoro-4-(pyridazin-3-yl)aniline]		
	> 60%	c1ccc(-c2cnc(Nc3cccc(-c4nc5ccccc5[nH]4)c3)cn2)nc1 [Example 276, N-(3-(1H-benzo[d]imidazol-2-yl)phenyl)-5-(pyridin-2-yl)pyrazin-2-amine]		
	> 60%	c1cc(Nc2cnc(-c3ccncn3)cn2)cc(-c2nc3ccccc3[nH]2)c1 [Example 277, N-(3-(1H-benzo[d]imidazol-2-yl)phenyl)-5-(pyrimidin-4-yl)pyrazin-2-amine]		
30 to 60%		CNc1ccc2nc(-c3cccc(Nc4ccc(-c5cccnn5)cc4)c3)[nH]c2c1 [Example 279, N-methyl-2-(3-((4-(pyridazin-3-yl)phenyl)amino)phenyl)-1H-benzo[d]imidazol-6-amine]		
> 60%	> 60%	Fc1cc2[nH]c(-c3cccc(Nc4ccc(-c5ccccn5)cn4)c3)nc2cn1 [Example 281, N-(3-(6-fluoro-1H-imidazo[4,5-c]pyridin-2-yl)phenyl)-[2,3'-bipyridin]-6'-amine]		
> 60%	30 to 60%	Clc1cc2[nH]c(-c3cccc(Nc4ccc(-c5ccccn5)cn4)c3)nc2cn1 [Example 282, N-(3-(6-chloro-1H-imidazo[4,5-c]pyridin-2-yl)phenyl)-[2,3'-bipyridin]-6'-amine]		
> 60%	> 60%	Fc1cc2nc(-c3cccc(Nc4ccc(-c5ccccn5)cn4)c3)[nH]c2cc1F [Example 283, N-(3-(5,6-difluoro-1H-benzo[d]imidazol-2-yl)phenyl)-[2,3'-bipyridin] -6'-amine]		
> 60%	> 60%	FC(F)Oc1ccc2nc(-c3cccc(Nc4ccc(-c5ccccn5)cn4)c3)[nH]c2c1 [Example 284, N-(3-(6-(difluoromethoxy)-1H-benzo[d]imidazol-2-yl)phenyl)-[2,3'-bipyridin]-6'-amine]		
> 60%	> 60%	FC(F)Oc1ccc2nc(-c3cccc(Nc4ncc(-c5ccccn5)cn4)c3)[nH]c2c1 [Example 285, N-(3-(6-(difluoromethoxy)-1H-benzo[d]imidazol-2-yl)phenyl)-5-(pyridin-2-yl)pyrimidin-2-amine]		
> 60%		Fc1cc2[nH]c(-c3cccc(Nc4ncc(-c5ccccn5)cn4)c3)nc2cn1 [Example 286, N-(3-(6-fluoro-1H-imidazo[4,5-c]pyridin-2-yl)phenyl)-5-(pyridin-2-yl)pyrimidin-2-amine]		
30 to 60%		FC(F)Oc1ccc2nc(-c3cccc(Nc4ncc(-c5cccnn5)cn4)c3)[nH]c2c1 [Example 287, N-(3-(6-(difluoromethoxy)-1H-benzo[d]imidazol-2-yl)phenyl)-5-(pyridazin-3-yl)pyrimidin-2-amine]		
